Laboratory results taken from PMC12062478, “Screening herbal and natural product libraries to aid discovery of novel allosteric modulators of human P2X7” (Purinergic Signalling, 2024).
Values joined by “and” are separate entries in the source; they are usually repeats but may differ in a detail not shown here. Equal entries are not always repeated. Where two headings read alike, the source gives them in different places. Numbered stars: 1 amine (or outer) side, 2 acyl side, 3 side chain; on linkers, the order of the positions; unused ones are H or OH. Bridge positions count the residues as written; N and C are the ends. Square brackets hold non-standard residues; d marks the D form. Peptide text beside a SMILES is read from it. I, II: the chains in the order shown. Actinocin(9to1) = Cc1c2oc3c(C)ccc(C(=O)[*:1])c3nc-2c(C(=O)[*:2])c(N)c1=O; dHica = CC(C)C[C@@H](O)C(=O)O; NMeV = CN[C@H](C(=O)O)C(C)C; NMeA = CN[C@@H](C)C(=O)O; βAla = NCCC(=O)O; Sar = CNCC(=O)O

Target: T1, P2X7 (Homo sapiens, UniProt Q99572)
T1 construct: expressed in transfected cells
T1 sequence (Q99572 1-595): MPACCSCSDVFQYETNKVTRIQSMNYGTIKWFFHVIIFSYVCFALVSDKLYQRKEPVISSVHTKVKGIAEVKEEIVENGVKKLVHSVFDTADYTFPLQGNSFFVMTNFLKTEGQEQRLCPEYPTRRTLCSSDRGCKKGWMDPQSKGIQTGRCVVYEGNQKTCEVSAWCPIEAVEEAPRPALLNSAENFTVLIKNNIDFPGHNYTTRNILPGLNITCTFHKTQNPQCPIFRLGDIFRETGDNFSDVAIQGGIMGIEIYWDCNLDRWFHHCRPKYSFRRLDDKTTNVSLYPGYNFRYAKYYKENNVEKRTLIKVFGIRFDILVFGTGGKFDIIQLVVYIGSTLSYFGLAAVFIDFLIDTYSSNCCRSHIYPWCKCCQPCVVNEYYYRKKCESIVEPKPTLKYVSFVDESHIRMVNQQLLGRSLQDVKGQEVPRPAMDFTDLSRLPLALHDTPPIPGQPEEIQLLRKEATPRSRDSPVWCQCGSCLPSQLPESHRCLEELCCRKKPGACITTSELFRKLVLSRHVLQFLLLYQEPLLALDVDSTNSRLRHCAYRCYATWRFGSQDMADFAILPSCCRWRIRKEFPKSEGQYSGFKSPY
Experiment: ATP-induced YO-PRO-1 dye uptake in HEK-hP2X7 cells
Assay type: cell-based
Conditions: for P2X7 response (% of control): compound 10 µM injected 60 s before ATP; for Effect on ATP-mediated YO-PRO-1 uptake: 10 µM, 10 min pre-incubation; for Effect on YO-PRO-1 uptake at high concentrations: > 30 µM, HEK-hP2X7; for Mechanism of action from ATP concentration–response curve: compound 10 µM
Description: HEK-hP2X7 or HEK-hP2X4 cells were plated at 2.5 × 10^4 cells per well (100 µL volume) the day before experiments into poly-D-lysine (Merck Millipore) coated 96-well plates (NUNC, Fisher Scientific #167-008). The membrane impermeant dye YO-PRO-1 iodide (Life Technologies, Fisher Scientific) was used at a final concentration of 2 µM in low divalent buffer (145 mM NaCl, 5 mM KCl, 0.2 mM CaCl2, 13 mM glucose, 10 mM HEPES, pH 7.3, osm 300–310). Media were removed from the plate, and 90 µL of YO-PRO-1 buffer was added per well. Plates were warmed to 37 °C for 5 min before recording. Data was acquired on a Flexstation 3 plate reader (Molecular Devices) using excitation wavelength 490 nm, emission wavelength 520 nm, and six reads per well (PMT medium). […] […] Pipette height was set to 80 µL and the rate of injection was 4.
YO-PRO-1 dye uptake assay data is plotted as a percentage of control where control responses are measured in the absence of plant extract. Cell viability data is plotted as a percentage of control or background-corrected fluorescence data. Concentration–response graphs were plotted using GraphPad Prism v6 with a non-linear regression fit (variable slope). IC50 values were generated from collated datasets from a minimum of three independent experiments. Statistical differences were determined by one-way ANOVA statistical tests performed using GraphPad Prism v6 with Dunnett’s multiple comparison post hoc test. Significance was taken as P ≤ 0.05.
We acquired a natural product library (Set IV) containing 419 compounds from NCI DTP and tested these on P2X7 responses using a YO-PRO-1 dye uptake in HEK293 cells stably expressing human P2X7 (HEK-hP2X7). […] This allowed us to assess for any immediate effect of the injected compound, and secondly, it allowed for any potential negative modulators to be pre-incubated with P2X7.

[1] = HEK-hP2X7, 10 min pre-treatment, ATP 1 mM, read-out: IC50 value (95% CI)
[2] = screen for potential negative allosteric modulators
[3] = HEK-hP2X7, NCI Natural Product Set IV compounds, Fig. 1F, read-out: IC50 (dose inhibition experiments)

Compound	P2X7 response (% of control) (screen for PAM activity)	P2X7 response (% of control) [2]	other results
Nc1nc(=O)c2c([nH]1)NCC(CNc1ccc(C(=O)N[C@@H](CCC(=O)O)C(=O)O)cc1)N2C=O (mixture of isomers) [Folinic acid, reference compound]	160.00 % of control	–	–
Nc1ncnc2c1ncn2[C@@H]1O[C@H](COP(=O)(O)OP(=O)(O)OP(=O)(O)O)[C@@H](O)[C@H]1O [ATP, reference compound]	–	–	EC50 (ATP with vehicle (DMSO), no modulator): 131 µM and 110 µM
O=C1CSC(=O)N1C(CCc1ccncc1)COc1ccc(-c2cccc([N+](=O)[O-])c2)cc1 (stereo not drawn) [AZ11645373, reference compound]	–	–	IC50 [1]: 0.153 µM
COc1cc(Cc2nccc3cc(OC)c(OC)cc23)c(C(C)=O)cc1OC [Acetopapaverine]	–	34.92 % of control	–
COc1cc2c(c3c1c(=O)c1ccccc1n3C)C=CC(C)(C)O2 [Acronine]	–	1.05 % of control	Effect on ATP-mediated YO-PRO-1 uptake (ATP 1 mM): able to reduce ATP-mediated YO-PRO-1 uptake
Cc1c2oc3c(C)ccc(C(=O)N[C@@H]4C(=O)N[C@H](C(C)C)C(=O)N5CCC[C@H]5C(=O)N(C)CC(=O)N(C)[C@@H](C(C)C)C(=O)O[C@@H]4C)c3nc-2c(C(=O)N[C@@H]2C(=O)N[C@H](C(C)C)C(=O)N3CCC[C@H]3C(=O)N(C)CC(=O)N(C)[C@@H](C(C)C)C(=O)O[C@@H]2C)c(N)c1=O [Actinomycin] (I: T[dV]P[Sar][NMeV] / II: T[dV]P[Sar][NMeV]; ester I:1-I:C, II:1-II:C; linker I:N-II:N via Actinocin(9to1))	188.44 % of control	–	–
COc1cc([C@@H]2c3cc4c(cc3C[C@H]3COC(=O)[C@@H]32)OCO4)cc(OC)c1OC [Anthricin]	–	30.94 % of control	–
NC(=O)C#CC(N)=O [Aquamycin]	–	15.18 % of control	–
CC(=O)O[C@H]1C(=O)[C@@]2(C)[C@H]([C@H](OC(=O)c3ccccc3)[C@]3(O)C[C@H](O)C(C)=C1C3(C)C)[C@]1(OC(C)=O)CO[C@@H]1C[C@@H]2O [Baccatin III]	136.25 % of control	–	–
COc1c2ccoc2cc2oc(=O)ccc12 [Bergapten]	–	–	Effect on YO-PRO-1 uptake at high concentrations: reduction of YO-PRO-1 uptake in hP2X7 cells at high concentrations
C[C@@H]1C[C@H](C)C[C@H](C)[C@@H](O)CC(=O)O[C@H]([C@@H]2CCC[C@H]2C(=O)O)C/C=C/C=C(/C#N)[C@H](O)[C@@H](C)C1 [Borrelidin]	–	42.93 % of control	–
C[C@H]1Oc2cc3c(-c4c(O)cc(O)c5c(O)c6c(cc45)O[C@H](C)[C@@H](C)C6=O)c(O)cc(O)c3c(O)c2C(=O)[C@@H]1C [Chaetochromin A]	–	12.08 % of control	–
CC[C@H](C)C(=O)O[C@H]1CCC=C2C=C[C@H](C)[C@H](CC[C@@H](O)C[C@@H](O)CC(=O)O)[C@H]21 [Compactin]	139.71 % of control	–	–
CC1(C)CCC[C@]2(C)C3=C(CC[C@@H]12)C(=O)OC3 [Confertifolin]	–	9.72 % of control	Effect on ATP-mediated YO-PRO-1 uptake (ATP 1 mM): able to reduce ATP-mediated YO-PRO-1 uptake; IC50 [3]: 3.86 µM; Mechanism of action from ATP concentration–response curve: potential non-competitive mechanism of action
C/C=C/C(=O)O [Crotonic acid]	142.15 % of control	–	–
COc1cc(/C=C/C(=O)CC(=O)/C=C/c2ccc(O)c(OC)c2)ccc1O [Curcumin]	144.58 % of control	–	–
CC[C@H](C)[C@@H]1NC(=O)[C@@H]2CCCN2C(=O)[C@@H](CC(C)C)OC(=O)CCNC(=O)[C@H](C)N(C)C(=O)[C@H](C(C)C)N(C)C1=O [Destrusin B] (cyclo([dHica]PI[NMeV][NMeA][βAla]))	–	46.65 % of control	–
O=C(O)c1cc(O)c(O)c(OC(=O)c2cc(O)c(O)c(O)c2)c1 [Digallic acid]	–	0 % of control	Effect on ATP-mediated YO-PRO-1 uptake (ATP 1 mM): able to reduce ATP-mediated YO-PRO-1 uptake; IC50 [3]: 4.05 µM; Mechanism of action from ATP concentration–response curve: potential non-competitive mechanism of action
O=C(O[C@@H]1Cc2c(O)cc(O)cc2O[C@@H]1c1ccc(O)c(O)c1)c1cc(O)c(O)c(O)c1 [ECG, epicatechin gallate]	–	–	IC50 (IC50 value (95% CI)): 4.96 µM

Compound	P2X7 response (% of control) (screen for PAM activity)	P2X7 response (% of control) [2]	other results
O=c1c(-c2ccc(O)cc2)coc2cc(O)cc(O)c12 [Genistein]	–	–	Effect on YO-PRO-1 uptake at high concentrations: reduction of YO-PRO-1 uptake in hP2X7 cells at high concentrations; IC50 (IC50 value (95% CI)): 49.7 µM
COc1ccc2c(c1OC)CN1CCc3cc4c(cc3[C@@H]1C2)OCO4 [Hydroberberine]	–	9.75 % of control	–
CC(=O)OC(C)C1C2=C(C(=O)C[C@]1(C)O)C(=O)c1c(ccc(-c3ccc4c(c3O)C(=O)C3=C(C4=O)C(C(C)OC(C)=O)[C@@](C)(O)CC3=O)c1O)C2=O (stereo partly drawn) [Julimycin II]	180.28 % of control	–	–
O=c1c(O)c(-c2ccc(O)cc2)oc2cc(O)cc(O)c12 [Kampferol, kaempferol]	–	–	IC50 [1]: 40 µM
CCCCC[C@@H](O)[C@H]1C(=O)O[C@H](C)[C@@H](O)/C=C/C=C/C=C/C=C/C=C(\C)[C@@H](O)[C@H](O)[C@H](O)C[C@H](O)C[C@H](O)C[C@H](O)C[C@H](O)C[C@@H]1O [Lagosin]	148.84 % of control	–	–
CC(=O)CCC(=O)O [Levullinic acid]	134.82 % of control	–	–
Nc1ncnc2c1ncn2C1OCC(O)C1O (stereo not drawn) [MLS003170979]	129.73 % of control	–	–
CCCn1cc2c3c(cccc31)[C@H]1C[C@@H](C)CN(C)[C@@H]1C2.O=C(O)C(O)C(O)C(=O)O [NSC332294]	–	29.09 % of control	–
COc1c(OC)c2c3c(nccc3c1OC)C(=O)c1cc(O)ccc1-2 [NSC785143]	149.00 % of control	–	–
c1cc2c(c3c1C[C@@H]1NCCc4cc5c(c-3c41)OCO5)OCO2 [NSC785157]	152.97 % of control	–	–
COc1cc2c(cc1O)C[C@H]1c3c(cc(OC)c(O)c3-2)CCN1C [NSC785158]	–	49.59 % of control	–
COc1cc2c3c(c1O)-c1cc(O)ccc1C[C@H]3N(C)CC2 [NSC785167]	125.18 % of control	–	–
COc1cc2c3c(c1O)Oc1ccc(cc1)C[C@@H]1c4c(cc(OC)c(OC)c4Oc4ccc(cc4)C[C@@H]3N(C)CC2)CCN1C [NSC785173]	148.84 % of control	–	–
COc1cc2c3c(c1O)-c1cc(N(Cc4ccccc4)Cc4ccccc4)ccc1CC3N(C)CC2 (stereo not drawn) [NSC785176]	159.37 % of control	–	–
COc1cc2c3c(c1O)-c1cc(O)ccc1CC3N(C)CC2 (stereo not drawn) [NSC785186]	146.91 % of control	–	–
COc1ccc2c(c1OC)-c1c(OC)c(OC)cc3c1[C@H](C2)NCC3 [NSC785187]	127.21 % of control	–	–
COC1C(C)OC(OC2CC(C)(O)Cc3cc4c(c(O)c32)C(=O)c2c(O)cc3c(c2C4=O)OC2OC3(C)C(O)C(N(C)C)C2O)C(OC)C1(C)OC (stereo not drawn) [Nogamycin]	155.77 % of control	–	–
CC(=O)O[C@H]1C[C@]2(O)[C@@H]3CC[C@@H]4C[C@@H](O)CC[C@]4(C)[C@H]3CC[C@]2(C)[C@H]1C1=CC(=O)OC1 [Oleandrogenin]	–	42.33 % of control	–
